Molecules are shown by their SMILES.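 Test compounds were applied to cells in 96-well plates for 48 hours at 5 doses. GI50 is the concentration that inhibits growth by half. TGI: total growth inhibition.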 *1 amine or outer side, *2 acyl side, *3 side chain or, on linkers, in order; H or OH if unused. Where a SMILES comes first, the peptide text is derived from it. [ ]: non-standard residue; d: D form. The star is where a group is joined. ξ: configuration not given here. X15 = CCN(CC)c1ccc2cc(N*)c(=O)oc2c1; dIva = CC[C@@](C)(N)C(=O)O; X14 = O=C(OCCN[*:1])[*:2]; Aib = CC(C)(N)C(=O)O; ξP = O=C(O)C1CCCN1; βAla = NCCC(=O)O

Test systems include 786-0 renal; HCT-15 colon; UO-31 renal; HCC-2998 colon; SW-620 colon; OVCAR-3 ovarian; HOP-92 NSCLC; A549 NSCLC; OVCAR-8 ovarian; HS 578T breast.
Common to all, as to experiment: NCI anticancer screen, dose series, 48 h

In the case of `FC(F)(F)c1ccc(-c2cnc(Cl)nc2NCc2cc(C(F)(F)F)cc(C(F)(F)F)c2)cc1`, the GI50 in the experiment with 786-0 renal is 3.67 µM; in the experiment on HCT-15 colon, 3.48 µM; with UO-31 renal, 2.51 µM; with HCC-2998 colon, 3.82 µM; with SW-620 colon, 3.14 µM; in the experiment on OVCAR-3 ovarian, 2.79 µM. For the same compound, the GI50 with HOP-92 NSCLC was 1.37 µM; in the experiment with A549 NSCLC, 2.81 µM; with OVCAR-8 ovarian, 3.48 µM; with HS 578T breast, 3.03 µM. Moreover, the TGI in the experiment with 786-0 renal was > 100 µM; with HCT-15 colon, > 100 µM; in the experiment with UO-31 renal, > 100 µM; in the experiment with HCC-2998 colon, > 100 µM; with SW-620 colon, > 100 µM; in the experiment on OVCAR-3 ovarian, 9.25 µM. The TGI in the experiment with HOP-92 NSCLC was 4.3 µM; in the experiment with A549 NSCLC it was > 100 µM; in the experiment on OVCAR-8 ovarian, > 100 µM; in the experiment with HS 578T breast, > 100 µM.
On to `CCN(CC)c1ccc2cc(NC(=O)OCCNC(=O)CCNC(=O)[C@H](CC(C)C)NC(=O)C(C)(C)NC(=O)C(C)(C)NC(=O)[C@H](CC(C)C)NC(=O)CCNC(=O)C(C)(C)NC(=O)[C@H](CC(C)C)NC(=O)CCNC(=O)[C@@](C)(CC)NC(=O)[C@H](C)NC(=O)CCNC(=O)C(C)(C)NC(=O)[C@H](C)NC(=O)[C@@H]3CCCN3C(=O)[C@@](C)(CC)NC(=O)[C@H](Cc3ccccc3)NC(=O)C3CCCN3C(=O)C(C)(C)NC(=O)C3CCCN3C(=O)C(C)(C)NC(C)=O)c(=O)oc2c1` (stereo not given in full) (Ac-[Aib][ξP][Aib][ξP]F[dIva]PA[Aib][βAla]A[dIva][βAla]L[Aib][βAla]L[Aib][Aib]L[βAla][X14]-X15), for which the GI50 in the experiment with 786-0 renal was 0.0102 µM; in the experiment with HCT-15 colon, 0.135 µM; in the experiment with UO-31 renal, 0.0296 µM; in the experiment on HCC-2998 colon, 0.00477 µM; with SW-620 colon, 0.0048 µM; in the experiment with OVCAR-3 ovarian it was 0.00338 µM. Moreover, the GI50 with HOP-92 NSCLC was 0.0256 µM; in the experiment with A549 NSCLC it was 0.00354 µM; in the experiment on OVCAR-8 ovarian, 0.005 µM; in the experiment on HS 578T breast it was 0.0045 µM. The TGI in the experiment with 786-0 renal amounted to 0.0319 µM; in the experiment with HCT-15 colon, 0.278 µM; in the experiment on UO-31 renal, 0.114 µM; in the experiment with HCC-2998 colon, 0.127 µM; in the experiment on SW-620 colon, 0.102 µM; in the experiment on OVCAR-3 ovarian, 0.0139 µM. Further, the TGI turned out to be 0.0709 µM in the experiment on HOP-92 NSCLC, 0.115 µM in the experiment with A549 NSCLC, 0.0939 µM with OVCAR-8 ovarian and 0.0548 µM in the experiment with HS 578T breast.
In the case of `CCCCNC(=O)NS(=O)(=O)c1ccc(N2N=C(c3cc(C)ccc3C)CC2c2cc(OC)c(OC)c(OC)c2)cc1` (stereo not given), the GI50 with 786-0 renal was 3.51 µM; with HCT-15 colon, 2.81 µM; with UO-31 renal, 3.07 µM; in the experiment with HCC-2998 colon, 2.32 µM; with SW-620 colon, 3.26 µM; with OVCAR-3 ovarian, 2.07 µM. The GI50 in the experiment with HOP-92 NSCLC is 1.27 µM; in the experiment with A549 NSCLC it was 2.53 µM; in the experiment on OVCAR-8 ovarian, 3.03 µM; in the experiment with HS 578T breast it was 2.2 µM. Moreover, the TGI was found to be 16.1 µM in the experiment on 786-0 renal; 11.1 µM with HCT-15 colon; 12.3 µM in the experiment on UO-31 renal; 4.84 µM in the experiment on HCC-2998 colon; 12.8 µM with SW-620 colon; 3.99 µM in the experiment with OVCAR-3 ovarian. For the same compound, the TGI with HOP-92 NSCLC was found to be 4.63 µM; in the experiment on A549 NSCLC it was 9.78 µM; in the experiment on OVCAR-8 ovarian, 10.5 µM; with HS 578T breast, 5.78 µM.
Regarding `CCC(/C=C/c1ccccc1)=N\Nc1ccc(Cl)c(Cl)c1`, the TGI with 786-0 renal was > 100 µM; in the experiment with HCT-15 colon, > 100 µM; with UO-31 renal, 57.9 µM; in the experiment on HCC-2998 colon, 65 µM; in the experiment on SW-620 colon, > 100 µM; in the experiment on OVCAR-3 ovarian it was > 100 µM. Moreover, the TGI with HOP-92 NSCLC was 58.2 µM; with A549 NSCLC it was > 100 µM; in the experiment on OVCAR-8 ovarian, 39.6 µM; in the experiment on HS 578T breast it was > 100 µM.
Turning to `O=C(COc1cccc(/C=C2\COc3ccc(Cl)cc3C2=O)c1)c1ccc(Cl)cc1`, the GI50 is 16.1 µM in the experiment on 786-0 renal; 12.2 µM in the experiment with HCT-15 colon; 5.13 µM with UO-31 renal; 3.71 µM with HCC-2998 colon; 3.3 µM with SW-620 colon; 7.71 µM in the experiment with OVCAR-3 ovarian. For the same compound, the GI50 in the experiment on HOP-92 NSCLC is 0.536 µM; in the experiment with A549 NSCLC, 16.3 µM; in the experiment on OVCAR-8 ovarian it was 15.8 µM; in the experiment on HS 578T breast, 18.8 µM. For the same compound, the TGI with 786-0 renal is 29.7 µM; in the experiment on HCT-15 colon, 24.7 µM; with UO-31 renal, 19.4 µM; in the experiment with HCC-2998 colon it was 15.1 µM; in the experiment with SW-620 colon, 13 µM; in the experiment on OVCAR-3 ovarian it was 19.8 µM. The TGI in the experiment on HOP-92 NSCLC was found to be 13.4 µM; in the experiment on A549 NSCLC, 32.1 µM; in the experiment with OVCAR-8 ovarian it was 37.5 µM; in the experiment with HS 578T breast, 48.7 µM.
